Like-named read-outs stand apart in the source and are kept apart here.
What was measured:
[1] = Pharmacokinetics in dog after IV and SC dosing; settings: in vivo, 3 nmol/kg
Summary of the method: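 Dogs were dosed IV or SC at 1 mL/kg with peptide at 3 nmol/mL in 10% DMSO/0.09% Polysorbate/PBS pH 7.4. K2-EDTA plasma was sampled to 336 h, and peptide was quantified by LCMS to derive half-life.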

[2] = physchem
Summary of the method: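 Solubility at pH 7.4 determined by stepwise addition of 200 mM phosphate buffer in 100 μL increments to 3 mg peptide, mixing briefly each time, until no insoluble material remained, then measured by liquid chromatography.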

[3] = test system: female beagle dogs; assay: PYY-1119-induced vomiting in dogs; assay type: in vivo; settings: 3 nmol/kg s.c., 72 hours post-dose (lower line)
Protocol: The GIPR agonist peptide compounds of the present disclosure or vehicle (0.09% [w/v] Tween 80/10% DMSO/PBS) were administered subcutaneously (sc) at 3-10 nmol/kg to female beagle dogs (10 months old), followed by sc injections with Y2R agonist ((4-imidazolecarbonyl-Ser-D-Hyp-Iva-Pya(4)-Cha-Leu(Me)-Asn-Lys-Aib-Thr-Arg-Gln-Arg-Cha-NH2), […]), […]) at 1 hour or specified hours in the table postdose. Emetic episodes were counted for 2 hours after administration (by blinded analysis).

[4] = test system: Dogs; assay type: in vivo; settings: 30 nmol/kg s.c.
Protocol: Dogs are transferred to an observation cage (700 mm W×700 mm D×700 mm H [W×D×H], without food) on 1 day before each apomorphine challenge. The dogs are weighed by using an electronic balance then test peptide compounds and vehicle will be administrated via the subcutaneous route. Apomorphine is challenged at 8 hr after the administration and emetic events will be monitored for 1 h by video recording. The second apomorphine challenge will be 72 hr after the administration and emetic events will be recorded by the same protocol. Emesis symptoms are continuously recorded using a video camera and stored on a blue ray disc. Observation of symptoms include retching (a rhythmic contraction of the abdomen) and vomiting (vomiting behavior, including the elimination of vomitus or similar behavior). Besides, the combination of retching and vomiting is defined as emesis, and the number of episodes, latency (time elapsed from morphine administration until the onset of the first emesis symptom), duration (time elapsed between the onset of the first and final episodes of emesis), and frequency (number of animals showing emesis/number of experimental animals) of each of these symptoms is calculated. The latency in cases where emesis symptoms are not noted is taken as the maximum value (1 h for apomorphine challenge) at the end of observation. When the duration of the emesis symptoms is less than 1 min, the duration is recorded, for convenience, as 1 min.

With `CC[C@H](C)[C@H](NC(=O)[C@H](CO)NC(=O)[C@H](Cc1ccc(O)cc1)NC(=O)[C@H](CC(=O)O)NC(=O)[C@H](CO)NC(=O)[C@@H](NC(=O)[C@H](Cc1ccccc1)NC(=O)[C@@H](NC(=O)CNC(=O)[C@H](CCC(=O)O)NC(=O)C(C)(C)NC(=O)[C@H](Cc1ccc(O)cc1)NC)[C@@H](C)O)[C@@H](C)CC)C(=O)N[C@@H](C)C(=O)N[C@@H](CCCCNC(=O)CNC(=O)CNC(=O)CNC(=O)CNC(=O)CNC(=O)CCCCCCCCCCCCCCCCC(=O)O)C(=O)N[C@@H](CC(=O)O)C(=O)N[C@@H](CCCNC(=N)N)C(=O)NC(C)(C)C(=O)N[C@@H](C)C(=O)N[C@@H](CCC(N)=O)C(=O)NC(C)(C)C(=O)N[C@@H](CC(N)=O)C(=O)N[C@@H](Cc1ccccc1)C(=O)N[C@H](C(=O)N[C@@H](CC(N)=O)C(=O)N[C@@H](Cc1c[nH]c2ccccc12)C(=O)N[C@@H](CC(C)C)C(=O)N[C@@H](CC(C)C)C(=O)N[C@@H](C)C(=O)N[C@@H](CCC(N)=O)C(=O)N[C@@H](CO)C(=O)N1CCC[C@H]1C(=O)N[C@@H](CO)C(=O)N[C@@H](CO)C(=O)NCC(=O)N[C@@H](C)C(=O)N1CCC[C@H]1C(=O)N1CCC[C@H]1C(=O)N1CCC[C@H]1C(=O)N[C@@H](CO)C(=O)O)C(C)C` [Compound 45, Me-Y-Aib-E-G-T-F-I-S-D-Y-S-I-A-Km-D-R-Aib-A-Q-Aib-N-F-V-N-W-L-L-A-Q-S-P-S-S-G-A-P-P-P-S-OH] the half-life ([1]; iv) was 62 h, the MRT last ([1]; sc) was 125 h and the solubility ([2]; pH 7.4) was ≥ 15 mg/mL. The solubility ([2]; pH 7.4, aqueous buffer) was ≥ 60 mg/mL, the “Inhibition (%) of PYY-1119-induced emetic event” value [3] was 90% (3 nmol/kg) and the “% inhibition of emetic events at doses (nmol/kg) shown in dog apomorphine model” value ([4]; after 8 hrs (upper)) was 70% (30 nmol/kg). The “% inhibition of emetic events at doses (nmol/kg) shown in dog apomorphine model” value ([4]; after 72 hours (lower)) was 72% (30 nmol/kg).

Reference: patent US20230143604A1, “QW DOSING OF GIP RECEPTOR AGONIST PEPTIDE COMPOUNDS AND USES THEREOF” (TAKEDA PHARMACEUTICAL COMPANY LIMITED, priority 2020, published 2023)
